The NIST ThermoML archive (doi:10.1021/je900050z)
Several values for one entry are separate records, joined by “and”; a condition that tells them apart may be missing. Equal values may be shown once. Numbers after ± are expanded uncertainties.

Conditions: Liquid

CCCCCCO [hexan-1-ol]
Conditions	vapor or sublimation pressure [kPa]
343.46 K	2.04 ± 0.17
344.2 K	2.16 ± 0.18
344.6 K	2.23 ± 0.18
345.36 K	2.35 ± 0.19
346.17 K	2.47 ± 0.2
347.27 K	2.67 ± 0.22
348.1 K	2.79 ± 0.23
348.35 K	2.85 ± 0.23
349.38 K	3.04 ± 0.25
349.75 K	3.11 ± 0.25
350.75 K	3.32 ± 0.27
351.39 K	3.44 ± 0.28
352.2 K	3.64 ± 0.29
352.63 K	3.73 ± 0.3
353 K	3.83 ± 0.31
353.31 K	3.89 ± 0.31
353.82 K	3.96 ± 0.32
355.2 K	4.31 ± 0.35
357.01 K	4.79 ± 0.38
358.22 K	5.15 ± 0.41
359.43 K	5.51 ± 0.44
360.34 K	5.79 ± 0.46
361.12 K	6.04 ± 0.48
361.86 K	6.29 ± 0.5
363.85 K	6.99 ± 0.56
364.61 K	7.27 ± 0.58
365.58 K	7.64 ± 0.61
366.3 K	7.92 ± 0.63
367.44 K	8.4 ± 0.67
368.05 K	8.67 ± 0.69
368.99 K	9.08 ± 0.73
369.67 K	9.4 ± 0.75
370.24 K	9.67 ± 0.77
370.83 K	9.95 ± 0.8
371.45 K	10.27 ± 0.82
372.1 K	10.59 ± 0.85
373 K	11.05 ± 0.88
373.67 K	11.43 ± 0.92
374.19 K	11.73 ± 0.94
375.14 K	12.27 ± 0.98
375.93 K	12.73 ± 1
376.59 K	13.15 ± 1.1
377.22 K	13.53 ± 1.1
377.83 K	13.71 ± 1.1
378.01 K	13.85 ± 1.1
378.37 K	14.15 ± 1.1
378.72 K	14.4 ± 1.1
379.1 K	14.65 ± 1.2
379.46 K	14.91 ± 1.2
379.75 K	15.12 ± 1.2
380.06 K	15.37 ± 1.2
380.41 K	15.61 ± 1.2
380.87 K	15.95 ± 1.3
381.15 K	16.15 ± 1.3
381.45 K	16.37 ± 1.3
381.89 K	16.71 ± 1.3
382.25 K	16.97 ± 1.4
382.56 K	17.21 ± 1.4
382.85 K	17.44 ± 1.4
383.18 K	17.69 ± 1.4
383.34 K	17.84 ± 1.4
383.67 K	18.09 ± 1.4
384.08 K	18.43 ± 1.5
384.87 K	19.05 ± 1.5
385.37 K	19.47 ± 1.6
385.86 K	19.91 ± 1.6
386.31 K	20.31 ± 1.6
386.83 K	20.79 ± 1.7
387.23 K	21.15 ± 1.7
387.62 K	21.48 ± 1.7
388.1 K	21.91 ± 1.8
388.59 K	22.37 ± 1.8
389.05 K	22.79 ± 1.8
389.48 K	23.2 ± 1.9
389.89 K	23.6 ± 1.9
390.23 K	23.95 ± 1.9
390.65 K	24.36 ± 1.9
390.93 K	24.67 ± 2
391.4 K	25.13 ± 2
391.75 K	25.51 ± 2
392.06 K	25.83 ± 2.1
392.51 K	26.31 ± 2.1
392.77 K	26.59 ± 2.1
393.14 K	27 ± 2.2

C1CCCCC1 [cyclohexane]
Conditions	vapor or sublimation pressure
295.42 K	11.15 ± 0.89 kPa
295.45 K	11.16 ± 0.89 kPa
295.46 K	11.17 ± 0.89 kPa
295.72 K	11.33 ± 0.91 kPa
295.75 K	11.35 ± 0.91 kPa
296.22 K	11.63 ± 0.93 kPa
297.08 K	12.15 ± 0.97 kPa
297.13 K	12.16 ± 0.97 kPa and 12.17 ± 0.97 kPa
297.86 K	12.61 ± 1 kPa
297.99 K	12.71 ± 1 kPa
298.83 K	13.23 ± 1.1 kPa
299.75 K	13.8 ± 1.1 kPa
299.77 K	13.81 ± 1.1 kPa
300.85 K	14.52 ± 1.2 kPa
302.63 K	15.71 ± 1.3 kPa
303.02 K	16.03 ± 1.3 kPa
303.15 K	16.11 ± 1.3 kPa
304.38 K	17.04 ± 1.4 kPa
304.4 K	17.05 ± 1.4 kPa
304.42 K	17.07 ± 1.4 kPa
306.05 K	18.33 ± 1.5 kPa
306.4 K	18.6 ± 1.5 kPa
307.45 K	19.4 ± 1.6 kPa
308.06 K	19.91 ± 1.6 kPa
309.5 K	21.12 ± 1.7 kPa
310.98 K	22.47 ± 1.8 kPa
312.48 K	23.89 ± 1.9 kPa
313.15 K	24.56 ± 2 kPa
313.84 K	25.25 ± 2 kPa
315.01 K	26.47 ± 2.1 kPa
315.26 K	26.67 ± 2.1 kPa
316.32 K	27.88 ± 2.2 kPa
317.51 K	29.23 ± 2.3 kPa
318.31 K	30.09 ± 2.4 kPa
318.67 K	30.56 ± 2.5 kPa
319.81 K	31.93 ± 2.5 kPa
320.87 K	33.27 ± 2.7 kPa
321.91 K	34.59 ± 2.8 kPa
321.99 K	34.69 ± 2.8 kPa
322.94 K	35.95 ± 2.9 kPa
323.15 K	36.27 ± 2.9 kPa
323.44 K	36.59 ± 2.9 kPa
323.88 K	37.23 ± 3 kPa
323.95 K	37.33 ± 3 kPa
324.83 K	38.56 ± 3.1 kPa
326.12 K	40.45 ± 3.2 kPa
326.68 K	41.25 ± 3.3 kPa
327.61 K	42.68 ± 3.4 kPa
328.43 K	43.97 ± 3.5 kPa
329.32 K	45.4 ± 3.6 kPa
329.35 K	45.43 ± 3.6 kPa
330.05 K	46.59 ± 3.7 kPa
330.94 K	48.07 ± 3.9 kPa
331.68 K	49.32 ± 4 kPa
332.02 K	49.89 ± 4 kPa
332.41 K	50.6 ± 4 kPa
333.11 K	51.87 ± 4.2 kPa
333.15 K	51.92 ± 4.2 kPa
333.83 K	53.15 ± 4.2 kPa
333.86 K	53.19 ± 4.3 kPa
334.53 K	54.47 ± 4.4 kPa
335.26 K	55.85 ± 4.5 kPa
335.64 K	56.56 ± 4.5 kPa
335.95 K	57.19 ± 4.6 kPa
336.7 K	58.63 ± 4.7 kPa
337.36 K	59.96 ± 4.8 kPa
338.06 K	61.39 ± 4.9 kPa and 61.4 ± 4.9 kPa
338.65 K	62.63 ± 5 kPa
338.67 K	62.64 ± 5 kPa
339.29 K	63.95 ± 5.1 kPa
339.92 K	65.29 ± 5.2 kPa
340.54 K	66.63 ± 5.3 kPa
341.12 K	67.95 ± 5.4 kPa
341.72 K	69.29 ± 5.5 kPa
342.32 K	70.65 ± 5.7 kPa
342.88 K	71.93 ± 5.8 kPa
343.15 K	72.6 ± 5.8 kPa
343.43 K	73.25 ± 5.9 kPa
344.05 K	74.73 ± 6 kPa
344.55 K	75.96 ± 6.1 kPa
345.08 K	77.27 ± 6.2 kPa
345.69 K	78.76 ± 6.3 kPa
346.18 K	80 ± 6.4 kPa
346.67 K	81.25 ± 6.5 kPa
347.18 K	82.56 ± 6.6 kPa and 82.57 ± 6.6 kPa
347.69 K	83.89 ± 6.7 kPa
348.19 K	85.23 ± 6.8 kPa
348.65 K	86.49 ± 6.9 kPa
349.19 K	87.93 ± 7 kPa
349.72 K	89.43 ± 7.2 kPa
350.18 K	90.64 ± 7.2 kPa
350.25 K	90.87 ± 7.3 kPa
350.67 K	92.07 ± 7.4 kPa
351.1 K	93.27 ± 7.5 kPa
351.57 K	94.63 ± 7.6 kPa
352.01 K	95.92 ± 7.7 kPa
352.45 K	97.23 ± 7.8 kPa
352.9 K	98.57 ± 7.9 kPa
353.15 K	99.31 ± 8 kPa
353.36 K	99.95 ± 8 kPa
